Measured values published in US20170326199A1, “USE OF CASPASE-2 INHIBITORS TO TREAT AND PREVENT THE METABOLIC SYNDROME” (Duke University, priority 2015, published 2017).

What was measured:
[1] = system: 3T3-L1 cells differentiated in adipocytes; experiment: Palmitate-induced lipoapoptosis (caspase 3/7 activity, ApoTox-Glo Triplex Assay) in 3T3-L1 adipocytes; format: cell-based; details: palmitate 1 mM, 48 hours, inhibitor 20 uM, FIG. 4G
Experimental: FIG. 4G. […] Left panel: apoptosis (caspase 3/7 activity) in adipocytes treated with Palmitate 1 mM, 48 hour±caspase-2 inhibitor, VDVAD-FMK 20 uM.
3T3-L1 cells were differentiated in adipocytes as previously described (Zebisch et al., 2012), and differentiation confirmed with Oil red staining. Adipocytes were treated with palmitate 1 mM with or without caspase-2 inhibitor Z-VDVAD-FMK (R&D Systems), 20 uM, for 48 hours. Apoptosis was measured using ApoTox-Glo Triplex Assay (Promega).

caspase-2 = biological target: T1, caspase-2 (Homo sapiens, UniProt P42575); details: cell-permeable peptide; cited from earlier work
T1 sequence (P42575 1-452): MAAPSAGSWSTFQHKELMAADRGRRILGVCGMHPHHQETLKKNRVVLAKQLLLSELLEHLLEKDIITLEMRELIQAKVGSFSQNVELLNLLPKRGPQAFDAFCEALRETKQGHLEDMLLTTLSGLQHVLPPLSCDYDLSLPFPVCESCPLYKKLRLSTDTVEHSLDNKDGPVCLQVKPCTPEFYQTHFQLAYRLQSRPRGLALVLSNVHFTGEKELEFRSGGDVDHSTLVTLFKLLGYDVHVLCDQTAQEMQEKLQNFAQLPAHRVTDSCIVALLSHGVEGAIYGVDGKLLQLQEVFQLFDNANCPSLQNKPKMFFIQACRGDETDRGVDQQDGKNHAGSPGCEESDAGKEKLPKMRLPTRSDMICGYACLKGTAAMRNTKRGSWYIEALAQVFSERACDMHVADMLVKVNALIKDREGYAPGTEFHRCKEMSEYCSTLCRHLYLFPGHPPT

[2] = system: human caspases (including caspase-2); details: broad-spectrum (pan-caspase) inhibitor; cited from earlier work
[3] = system: other classes of proteases or other enzymes or receptors other than caspases; details: selectivity; cited from earlier work

Z-VDVAD-FMK
effect on palmitate-induced lipoapoptosis in adipocytes [1]: prevented

VDVAD [available as a fluoromethylketone derivative]
inhibition of caspase-2 activity (caspase-2): irreversibly inhibits

C[C@H](NC(=O)C(=O)Nc1ccccc1C(C)(C)C)C(=O)N[C@@H](CC(=O)O)C(=O)COc1c(F)c(F)cc(F)c1F [IDN-6556]
activity against caspases [2]: activity against all tested human caspases (including caspase-2)
inhibition of non-caspase proteases, enzymes or receptors [3]: no inhibition
